Test results reported in PMC10518257 (Nature Cancer, 2023).
Several values for one entry are separate records, joined by “and”; a condition that tells them apart may be missing. Identical values can stand only once.

Key:
[1] = molecular target: T1, panel of 255 (vepafestinib) or 256 (all other inhibitors) recombinant kinases (Homo sapiens, UniProt O14757); assay: Kinase selectivity profiling at a single concentration (Carna Biosciences); assay type: biochemical; settings: 23 nM
T1 construct: purchased Carna Biosciences
T1 sequence (O14757 whole entry): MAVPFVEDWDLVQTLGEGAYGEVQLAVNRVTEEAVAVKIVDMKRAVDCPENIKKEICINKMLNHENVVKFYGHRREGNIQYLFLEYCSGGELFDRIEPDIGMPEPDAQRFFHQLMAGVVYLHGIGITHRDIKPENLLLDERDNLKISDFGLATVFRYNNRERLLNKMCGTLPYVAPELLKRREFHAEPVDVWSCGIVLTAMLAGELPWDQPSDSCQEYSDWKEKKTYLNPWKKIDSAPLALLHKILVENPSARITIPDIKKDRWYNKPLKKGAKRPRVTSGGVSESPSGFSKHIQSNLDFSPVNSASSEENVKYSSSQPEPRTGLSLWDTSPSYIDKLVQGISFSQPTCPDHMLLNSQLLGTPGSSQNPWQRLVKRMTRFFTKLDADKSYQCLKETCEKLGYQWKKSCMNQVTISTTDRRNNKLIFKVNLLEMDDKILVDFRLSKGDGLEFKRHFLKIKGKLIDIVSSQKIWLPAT

[2] = molecular target: T2, panel of 255 (vepafestinib) or 256 (all other inhibitors) recombinant kinases (Homo sapiens, UniProt P35968); assay: as above; assay type: biochemical; settings: 23 nM
T2 construct: purchased Carna Biosciences
T2 sequence (P35968 20-1356): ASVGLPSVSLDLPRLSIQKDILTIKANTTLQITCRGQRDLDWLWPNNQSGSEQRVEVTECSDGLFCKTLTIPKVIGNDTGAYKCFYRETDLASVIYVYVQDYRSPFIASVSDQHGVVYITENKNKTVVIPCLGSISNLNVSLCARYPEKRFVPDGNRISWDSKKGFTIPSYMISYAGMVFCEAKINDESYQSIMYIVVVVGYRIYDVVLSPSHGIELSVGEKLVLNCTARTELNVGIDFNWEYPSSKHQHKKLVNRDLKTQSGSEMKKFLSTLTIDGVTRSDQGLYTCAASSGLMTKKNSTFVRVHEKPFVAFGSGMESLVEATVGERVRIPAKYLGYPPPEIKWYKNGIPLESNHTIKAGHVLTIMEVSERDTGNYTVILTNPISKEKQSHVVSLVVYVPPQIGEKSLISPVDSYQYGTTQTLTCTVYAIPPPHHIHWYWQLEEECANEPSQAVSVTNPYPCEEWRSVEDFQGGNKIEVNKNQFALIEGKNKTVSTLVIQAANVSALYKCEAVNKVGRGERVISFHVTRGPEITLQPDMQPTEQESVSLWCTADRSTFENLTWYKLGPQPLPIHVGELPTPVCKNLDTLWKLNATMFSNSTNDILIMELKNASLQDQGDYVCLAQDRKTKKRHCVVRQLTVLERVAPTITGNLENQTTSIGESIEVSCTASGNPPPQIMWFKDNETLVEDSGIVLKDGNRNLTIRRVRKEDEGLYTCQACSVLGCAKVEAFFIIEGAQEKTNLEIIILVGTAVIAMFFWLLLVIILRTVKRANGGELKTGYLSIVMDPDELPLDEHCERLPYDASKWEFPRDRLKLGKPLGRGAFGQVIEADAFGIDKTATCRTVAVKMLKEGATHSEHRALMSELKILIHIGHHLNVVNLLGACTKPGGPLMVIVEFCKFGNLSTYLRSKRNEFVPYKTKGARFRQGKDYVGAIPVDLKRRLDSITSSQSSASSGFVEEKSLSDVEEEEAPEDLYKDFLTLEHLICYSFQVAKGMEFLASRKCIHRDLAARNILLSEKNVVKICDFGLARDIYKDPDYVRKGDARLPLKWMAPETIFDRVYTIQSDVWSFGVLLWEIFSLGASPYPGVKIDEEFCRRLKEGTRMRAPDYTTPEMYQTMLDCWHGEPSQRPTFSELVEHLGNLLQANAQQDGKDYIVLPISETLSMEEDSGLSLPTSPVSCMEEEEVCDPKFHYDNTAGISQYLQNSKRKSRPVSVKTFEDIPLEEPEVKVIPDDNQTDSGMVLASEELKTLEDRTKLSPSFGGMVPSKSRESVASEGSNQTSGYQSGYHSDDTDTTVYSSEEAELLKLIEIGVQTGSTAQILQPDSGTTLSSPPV

[3] = molecular target: T3, panel of 255 (vepafestinib) or 256 (all other inhibitors) recombinant kinases (Homo sapiens, UniProt Q06418); assay: as above; assay type: biochemical; settings: 23 nM
T3 construct: purchased Carna Biosciences
T3 sequence (Q06418 41-890): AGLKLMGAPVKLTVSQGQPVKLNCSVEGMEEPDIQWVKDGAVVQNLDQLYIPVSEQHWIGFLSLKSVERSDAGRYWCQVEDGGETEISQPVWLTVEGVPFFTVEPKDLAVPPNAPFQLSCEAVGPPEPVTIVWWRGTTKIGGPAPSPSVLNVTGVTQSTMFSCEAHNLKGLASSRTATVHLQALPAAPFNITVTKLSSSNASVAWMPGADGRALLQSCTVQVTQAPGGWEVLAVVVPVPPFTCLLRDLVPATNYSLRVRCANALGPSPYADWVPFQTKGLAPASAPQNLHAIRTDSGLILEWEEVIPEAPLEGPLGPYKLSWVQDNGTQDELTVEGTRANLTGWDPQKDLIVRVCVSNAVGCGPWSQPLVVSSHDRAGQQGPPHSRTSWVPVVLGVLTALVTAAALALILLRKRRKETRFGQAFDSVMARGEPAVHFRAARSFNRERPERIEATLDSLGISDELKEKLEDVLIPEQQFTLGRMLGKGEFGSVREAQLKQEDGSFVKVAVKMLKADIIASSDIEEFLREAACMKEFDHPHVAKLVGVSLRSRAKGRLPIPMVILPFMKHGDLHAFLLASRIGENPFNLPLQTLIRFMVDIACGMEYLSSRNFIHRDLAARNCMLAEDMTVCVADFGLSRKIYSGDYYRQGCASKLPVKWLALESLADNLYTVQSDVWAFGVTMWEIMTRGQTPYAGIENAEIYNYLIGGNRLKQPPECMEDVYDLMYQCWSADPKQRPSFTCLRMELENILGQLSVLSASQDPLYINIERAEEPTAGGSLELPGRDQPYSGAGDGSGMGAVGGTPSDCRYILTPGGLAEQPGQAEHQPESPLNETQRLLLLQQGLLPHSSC

[4] = molecular target: T4, panel of 255 (vepafestinib) or 256 (all other inhibitors) recombinant kinases (Homo sapiens, UniProt Q15375); assay: as above; assay type: biochemical; settings: 23 nM
T4 construct: purchased Carna Biosciences
T4 sequence (Q15375 28-998): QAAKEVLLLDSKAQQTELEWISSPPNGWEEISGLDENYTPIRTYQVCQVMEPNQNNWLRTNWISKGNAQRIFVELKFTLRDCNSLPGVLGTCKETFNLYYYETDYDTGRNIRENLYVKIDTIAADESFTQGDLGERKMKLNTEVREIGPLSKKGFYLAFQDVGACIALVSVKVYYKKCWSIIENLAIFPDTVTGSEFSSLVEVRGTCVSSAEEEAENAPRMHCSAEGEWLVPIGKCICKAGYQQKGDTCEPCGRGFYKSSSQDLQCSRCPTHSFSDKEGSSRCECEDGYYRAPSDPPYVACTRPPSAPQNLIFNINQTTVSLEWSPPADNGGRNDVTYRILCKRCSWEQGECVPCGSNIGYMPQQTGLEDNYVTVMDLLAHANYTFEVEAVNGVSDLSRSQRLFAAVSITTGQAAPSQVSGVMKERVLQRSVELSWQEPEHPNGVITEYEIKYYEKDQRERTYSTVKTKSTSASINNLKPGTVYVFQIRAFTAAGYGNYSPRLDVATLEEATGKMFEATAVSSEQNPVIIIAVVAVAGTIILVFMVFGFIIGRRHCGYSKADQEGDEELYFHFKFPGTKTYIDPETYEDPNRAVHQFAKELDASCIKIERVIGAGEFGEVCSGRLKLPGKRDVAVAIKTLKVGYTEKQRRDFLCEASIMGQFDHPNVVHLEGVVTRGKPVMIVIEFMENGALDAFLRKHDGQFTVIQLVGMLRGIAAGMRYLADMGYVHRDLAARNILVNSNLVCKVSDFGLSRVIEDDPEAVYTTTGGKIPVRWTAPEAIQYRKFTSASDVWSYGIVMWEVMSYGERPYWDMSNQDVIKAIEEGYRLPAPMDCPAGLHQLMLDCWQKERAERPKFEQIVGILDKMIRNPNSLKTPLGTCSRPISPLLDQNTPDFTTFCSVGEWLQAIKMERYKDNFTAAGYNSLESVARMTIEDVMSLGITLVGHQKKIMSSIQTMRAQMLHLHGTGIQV

[5] = molecular target: T5, KDR (Homo sapiens, UniProt P35968); assay: Dose-response IC50 on off-target kinases; assay type: biochemical
T5 construct: purchased Carna Biosciences
T5 sequence (P35968 20-1356): as the sequence (P35968 20-1356) above

[6] = system: HBECp53-EV cells; assay: Growth inhibition (alamarBlue, 96 h); assay type: cell-based, human; settings: for raw viability signal (Source Data Fig. 3b-c): HBEC-EV, replicate sets
[7] = system: LUAD-0077AS1 PDX; assay: PDX efficacy study; assay type: in vivo, NSG mice; design: Tumor volume: unit not given here; settings: for Area Under Curve Mean: Fig. 6b LUAD-0077AS1 tumor growth; for Change in tumor volume (block without heading, Fig. 6b) / Tumor volume: LUAD-0077AS1, individual animals
[8] = system: NIH-3T3 CCDC6-RET luciferase cells implanted intracranially; assay: Intracranial efficacy study; assay type: in vivo, nude mice; settings: 50 mg per kg BID from day 5 after implantation
[9] = in vivo; settings: male, BALB/c, mouse, in vivo, po, 50 mg/kg
[10] = system: LUAD-0057AS1 PDX; assay: PDX efficacy study

COCc1ccc(NC(=O)c2c(C#CCN3CCOCC3)n(C3(C)CC3)c3ncnc(N)c23)cc1 [Vepafestinib, 4-amino-N-[4-(methoxymethyl)phenyl]-7-(1-methylcyclopropyl)-6-[3-(morpholin-4-yl)prop-1-yn-1-yl]-7H-pyrrolo[2,3-d]pyrimidine-5-carboxamide]
% Inhibiton CHK1 [1]: 11.9%
% Inhibiton KDR [2]: 36%
% Inhibiton TYRO3 [3]: 8.6%
% Inhibiton EPHA7 [4]: 10.4%
IC50 [5]: 0.172 µM
raw viability signal (Source Data Fig. 3b-c) ([6]; 0.01 nM): 27037 and 29740.2
raw viability signal (Source Data Fig. 3b-c) ([6]; 0.1 nM): 19425.3 (2×) and 27020.1 and 29597.7
raw viability signal (Source Data Fig. 3b-c) ([6]; 1 nM): 18975.7 (2×) and 23808.3 and 29292.2
raw viability signal (Source Data Fig. 3b-c) ([6]; 10 nM): 19412.6 (2×) and 25517.4 and 26617.3
raw viability signal (Source Data Fig. 3b-c) ([6]; 100 nM): 19354.5 (2×) and 27120.8 and 27640.4
raw viability signal (Source Data Fig. 3b-c) ([6]; 1000 nM): 20047.9 (2×) and 18738.8 and 27632.3
raw viability signal (Source Data Fig. 3b-c) ([6]; 10000 nM): 7853.82 (2×) and 1053.31 and 23430.8
IC50 ([6]; Homo sapiens, 96 h, read-out: IC50 for Inhibition of Growth (95% CI)): 7.91 µM
Area Under Curve Mean ([7]; 50 mg/kg BID): 728.7
Area Under Curve Mean ([7]; 100 mg/kg QD): 549
Change in tumor volume (block without heading, Fig. 6b) ([7]; 50 mg/kg BID): 60.867 and 57.9883 and 49.0287 and 27.5983 and 23.1229
Tumor volume ([7]; 50 mg/kg BID, treatment day 0): 82.36 (2×) and 88.7 and 83.97 and 85.5
Tumor volume ([7]; 50 mg/kg BID, treatment day 4): 85.5 (3×) and 82.36 and 83.97
Tumor volume ([7]; 50 mg/kg BID, treatment day 7): 80.89 (2×) and 82.36 (2×) and 85.5
Tumor volume ([7]; 50 mg/kg BID, treatment day 11): 80.89 (3×) and 74.9 and 77.87
Tumor volume ([7]; 50 mg/kg BID, treatment day 14): 95.03 and 87.03 and 102.07 (3×)
Tumor volume ([7]; 50 mg/kg BID, treatment day 19): 105.09 and 109.21 and 122.74 and 135.08 (2×)
Tumor volume ([7]; 50 mg/kg BID, treatment day 22): 186.96 and 181.98 and 192.42 and 159.66 and 197.96
Tumor volume ([7]; 50 mg/kg BID, treatment day 25): 232.25 (2×) and 250.35 (2×) and 247.99
Change in tumor volume (block without heading, Fig. 6b) ([7]; 100 mg/kg QD): 67.7861 and 60.2113 and 54.3275 and 44.2105 and 25.5424
Tumor volume ([7]; 100 mg/kg QD, treatment day 0): 82.36 and 83.97 and 87.11 and 85.5 (2×)
Tumor volume ([7]; 100 mg/kg QD, treatment day 4): 85.5 (2×) and 83.97 (2×) and 88.7
Tumor volume ([7]; 100 mg/kg QD, treatment day 7): 82.36 and 72.18 and 79.42 and 77.87 and 79.29
Tumor volume ([7]; 100 mg/kg QD, treatment day 11): 79.29 (2×) and 65.37 and 72.18 and 77.87
Tumor volume ([7]; 100 mg/kg QD, treatment day 14): 114.83 and 111.18 and 83.83 (3×)
Tumor volume ([7]; 100 mg/kg QD, treatment day 19): 131.95 (2×) and 140.89 and 109.36 and 123.3
Tumor volume ([7]; 100 mg/kg QD, treatment day 22): 136.38 and 156.56 and 135.08 and 138.33 and 147.55
Tumor volume ([7]; 100 mg/kg QD, treatment day 25): 213.8 and 205.8 and 189.86 and 177.9 and 205.88
median survival [8]: 52 days
Kp [9]: 1.8
Kp uu [9]: 1.3
tumor shrinkage ([10]; 50 mg per kg BID): 44% ± 3%
Area Under Curve of tumor growth, Mean ([10]; 50 mg/kg BID): -1274
Tumor volume ([10]; 50 mg/kg BID, day 0, individual animals): 141.55 mm3 and 150.43 mm3 (2×) and 137.16 mm3 and 152.81 mm3 and 132.84 mm3 and 139.24 mm3 and 143.69 mm3
Tumor volume ([10]; 50 mg/kg BID, day 3, individual animals): 107.44 mm3 and 102.07 mm3 (2×) and 103.92 mm3 and 105.68 mm3 (2×) and 109.36 mm3 and 109.21 mm3
Tumor volume ([10]; 50 mg/kg BID, day 7, individual animals): 86.78 mm3 and 84.95 mm3 (2×) and 83.53 mm3 and 93.45 mm3 and 76.27 mm3 and 91.61 mm3 and 79.29 mm3
Tumor volume ([10]; 50 mg/kg BID, day 10, individual animals): 71.99 mm3 and 84.95 mm3 and 77.63 mm3 and 80.7 mm3 (2×) and 69.38 mm3 and 74.9 mm3 and 72.18 mm3
